{"source": "patent US11649245B2", "about": "“Cyclopropylamine compound as LSD1 inhibitor and use thereof” (HELIOEAST PHARMACEUTICAL CO., LTD., priority 2018, dated 2023)", "key": {"[1]": {"system": "MC38 mouse colon cancer transplanted tumor model", "assay": "In vivo pharmacodynamic study on MC38 mouse colon cancer transplanted tumor model", "parameters": "species or system C57BL/6 mice", "conditions": "compound 6 hydrochloride 1.5 mg/kg oral once a day, PD-1 mAb 5 mg/kg i.p. twice a week", "method": "The purpose of this experiment was to evaluate the in vivo efficacy of the compounds of the present disclosure on MC38 mouse colon cancer transplanted tumor model.\nName: MC38 (Mouse Colon Cancer Cell)\nCell culture: 1640 medium containing 10% fetal bovine serum was used as culture medium, and the culture condition was 37° C., 5% carbon dioxide. The passage ratio was 1:2 to 1:3, the passage was performed 2-3 times per week.\n0.1 mL (2×10^5 cells) of cells were subcutaneously inoculated into the right back of each mouse. On the same day, the animals were randomly grouped according to their body weight. […]\nThe experimental indicator is to investigate whether the tumor growth was inhibited, delayed or cured. Tumor diameters were measured with a vernier caliper twice a week. The tumor volume was calculated by the formula: V=0.5a×b^2, a and b respectively represent the long and short diameters of the tumor.\nThe efficacy of the compound was evaluated by relative tumor growth rate T/C (%). […] The relative tumor volume (RTV) was calculated based on the results of tumor measurement, the calculation formula was: RTV=Vt/V0, wherein V0 was the average tumor volume measured at the time of grouping administration (i.e., do), Vt is the average tumor volume measured at a single time, TRTV and CRTV were calculated from the data on the same day."}, "NCI-H1417 cells": {"system": "NCI-H1417 cells", "assay": "Antiproliferation activity on NCI-H1417 cells (CellTiter-Glo, 10 days)", "assay_type": "cell-based, human", "conditions": "incubated for 10 days", "method": "Experimental purpose: to detect the antiproliferation activity of the compounds on NCI-H1417 cells.\nExperimental materials: RPMI 1640 culture medium, fetal bovine serum, Promega CellTiter-Glo reagent. NCI-H1417 cell line purchased from ATCC. Envision multi-label reader (PerkinElmer).\nExperimental method: the compounds were dissolved to 10 mM, then the compounds were diluted 5 times with DMSO in a compound plate, the compounds were diluted 3-fold with Bravo from a starting concentration of 2 mM to the 10th concentration, 250 nL of the solutions were transferred to the upper and lower duplicate wells on a blank 384 cell plate by Echo transfer plate, cell suspension of per well/1000 cells/50 μL was added to the transferred 250 nL DMSO/compound, the compounds were diluted 200-fold, i.e., the initial action concentration was 10 μM. The cell plate was placed in a carbon dioxide incubator and incubated for 10 days. 25 μL of Promega CellTiter-Glo reagent was added to each well on the cell plate and was shaken at room temperature for 10 minutes to stabilize the luminescence signal. Readings were performed by PerkinElmer Envision multi-label analyzer.\nData analysis: the equation (Max-Ratio)/(Max-Min)*100% was used to convert the original data into the inhibition rate, the value of IC50 can be obtained by curve fitting of four-parameters (the 205 mode in XLFITS, iDBS)."}, "MV-4-11 cells": {"system": "MV-4-11 cells", "assay": "Antiproliferation activity on MV-4-11 cells (CellTiter-Glo, 6 days)", "assay_type": "cell-based", "conditions": "incubated for 6 days", "from_the_text": "Experimental purpose: to detect the antiproliferation activity of the compound to be tested on MV-4-11 cells.\nExperimental materials: IMDM culture medium, fetal bovine serum, penicillin/streptomycin antibiotics purchased from Wisent. CellTiter-Glo (chemiluminescent cell viability assay reagent) reagents purchased from Promega. MV-4-11 cell line was purchased from Nanjing Cobioer Co., Ltd. Nivo Multi-Marker Analyzer (PerkinElmer).\nExperimental method: MV-4-11 cells were planted in a white 96-well plate, 80 μL of cell suspension per well, which contained 6000 MV-4-11 cells. The cell plate was placed in a carbon dioxide incubator for overnight culture.\nThe compounds to be tested were diluted 5-fold with a pipet until the 8th concentration, i.e., diluted from 2 mM to 25.6 nM, double duplicate well experiment was set. 78 μL of the culture medium was added to an intermediate plate, and then 2 μL per well of the serially diluted compounds were transferred to the corresponding positions on the intermediate plate, after mixing, 20 μL per well was transferred to the cell plate. The cell plate was incubated in a carbon dioxide incubator for 6 days. Another cell plate was prepared and the signal value on the day of dosing was read as the maximum value (Max value in the equation below) to participate in the data analysis. 25 μL of the chemiluminescent cell viability assay reagent was added to each well of this cell plate, which was incubated at room temperature for 10 minutes to stabilize the luminescence signal. The multi-label analyzer was used for reading.\nData analysis: the equation (Sample-Min)/(Max-Min)*100% was used to convert the original data into the inhibition rate, the IC50 value can be obtained by curve fitting of four-parameters (“log(inhibitor) vs. response—Variable slope” mode in GraphPad Prism))."}, "[2]": {"assay": "In vivo pharmacokinetics in CD-1 mice", "conditions": "male CD-1 mice", "method": "CD-1 mice (male, 7-9 weeks old, Shanghai Slac)\nThe rodent pharmacokinetic characteristics after intravenous injection and oral administration of the compounds were tested by standard protocols, in the experiment, the candidate compounds were formulated into clear solutions and administrated to mice via a single intravenous injection and oral administration. The vehicle for intravenous injection and oral administration was a mixed solution of 10% of dimethyl sulfoxide and 90% of 10% hydroxypropyl β cyclodextrin. This project used four male CD-1 mice, two mice were administered intravenously, with a dose of 1 mg/kg, and plasma samples were collected at 0 hour (before administration) and 0.0833, 0.25, 0.5, 1, 2, 4, 8, 24 hours after administration. The other two mice were orally administered by gavage, with a dose of 2 mg/kg, plasma samples were collected at 0 hour (before administration) and 0.25, 0.5, 1, 2, 4, 8, 24 hours after administration, whole blood samples were collected within 24 hours, which were centrifuged at 3000 g for 15 minutes, and the supernatants were separated to obtain plasma samples, 4 times volume of acetonitrile solutions containing internal standard were added to precipitate the protein, the mixtures were centrifuged to obtain the supernatants, the supernatants were added with water of equal volume and centrifuged again to take the supernatant for injection, and the blood drug concentration was quantitatively analyzed by the LC-MS/MS analysis method, and pharmacokinetic parameters were calculated, such as max concentration (Cmax), clearance (CL), half-life (T1/2), volumes of distribution (Vdss), the area under the plasma concentration-time curve (AUC0-last), bioavailability (F) etc."}}, "note": "Where a name gives a salt, the structure may show the parent alone.", "data": [{"smiles": "O=C(O)c1ccc(CN2CCC3(CC2)CC(N[C@@H]2C[C@H]2c2ccccc2)CO3)cc1", "note": "(stereo partly shown) [Hydrochloride of the compound 6]", "values": [{"measurement": "Tumor volume (28th day)", "setting": "[1]; C57BL/6 mice, 28th day after administration", "result": "1653 ± 893", "unit": "mm^3"}, {"measurement": "T/C", "setting": "[1]; relative tumor growth rate, 28th day", "result": 92, "unit": "%"}, {"measurement": "IC50", "setting": "NCI-H1417 cells", "result": 9.11, "unit": "nM"}, {"measurement": "IC50", "setting": "MV-4-11 cells", "result": 3.21, "unit": "nM"}, {"measurement": "Half-life T1/2 (IV)", "setting": "[2]; IV 1 mg/kg, 1 mg/kg", "result": 1.54, "unit": "h"}, {"measurement": "clearance", "setting": "[2]; male, CD-1, mouse, plasma, iv, 1 mg/kg, study doses 1 mg/kg intravenous, 2 mg/kg oral, read-out: Clearance CL", "result": 40.2, "unit": "mL/min/kg"}, {"measurement": "Vd", "setting": "[2]; male, CD-1, mouse, plasma, iv, 1 mg/kg, study doses 1 mg/kg intravenous, 2 mg/kg oral, read-out: Volumes of distribution Vdss", "result": 1.19, "unit": "L/kg"}, {"measurement": "Cmax", "setting": "[2]; male, CD-1, mouse, plasma, study doses 1 mg/kg intravenous, 2 mg/kg oral, route not given, read-out: Max concentration Cmax", "result": 718, "unit": "nM"}, {"measurement": "AUC(0-t)", "setting": "[2]; male, CD-1, mouse, plasma, po, 2 mg/kg, PO 2 mg/kg, read-out: The area under the plasma concentration-time curve AUC0-last PO", "result": 0.691, "unit": "µM·h"}, {"measurement": "bioavailability", "setting": "[2]; male, CD-1, mouse, plasma, po, 2 mg/kg, oral 2 mg/kg vs intravenous 1 mg/kg, read-out: Bioavailability F", "result": 33.2, "unit": "%"}]}]}
